In patent publication US10858365B2, “Triazolo-pyrimidine compounds and uses thereof” (Dizal (Jiangsu) Pharmaceutical Co., Ltd., priority 2018, dated 2020):

Experiments:
[1] = target: hA3 (Homo sapiens (Human), UniProt P0DMS8); experiment: cAMP & FLIPR inhibition, hA3 over-expressing cell line; type: cell-based
Description: FLIPR™ and cAMP inhibition activities of exemplary compounds in different adenosine receptor over-expressing cell lines are shown in Table 4 below.

[2] = target: hA2b (Homo sapiens (Human), UniProt P29275); experiment: cAMP inhibition assay in hA2b/CHO cells; type: cell-based; conditions: adenosine stimulation, read-out: cAMP & FLIPR IC50 (nM) hA2b
Protocol: (§1) hA2a/CHO, hA2b/CHO and mA2a/CHO (Genscript) were plated at 5×10^3 cells/well into 384-well polystyrene plates at the day of experiment. Compounds were pre-incubated with cells for 30 min at 37° C., 5% CO2. Then […] adenosine was added to the cells and incubated for 30 min at 37° C., 5% CO2. Detection reagent (CISBIO) was added and the plates were incubated for 60 min at room temperature. The signal was captured by Envision.

[3] = target: T1, hA1 (Homo sapiens (Human), UniProt P30542); experiment: FLIPR inhibition assay in hADORA1/CHO (hA1 expressing) cells; type: cell-based; conditions: hADORA1/CHO cells, FLIPR calcium, adenosine stimulation; read-out: cAMP & FLIPR IC50 (nM) hA1
Method in brief: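 CHO cells expressing human A1 were plated at 1×10^4 cells/well the day before, then loaded with FLIPR Calcium 5 dye for 60 min at 37 °C, 5% CO2. Compounds were added at several concentrations for 400 s before stimulation with […] adenosine. The calcium signal was recorded by FLIPR.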

[4] = target: mA2a (Mus musculus (Mouse), UniProt Q60613); experiment: cAMP inhibition assay in mA2a/CHO cells; type: cell-based; conditions: adenosine stimulation, read-out: cAMP & FLIPR IC50 (nM) mA2a
Protocol: as §1

[5] = target: T2, hA2a (Homo sapiens (Human), UniProt P29274); experiment: cAMP inhibition assay in hA2a/CHO cells; type: cell-based; conditions: adenosine stimulation, read-out: cAMP & FLIPR IC50 (nM) hA2a
Method in brief: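 CHO cells expressing human A2a, human A2b or mouse A2a, 5×10^3 cells/well, pre-incubated with compound 30 min at 37 °C, then stimulated with […] adenosine 30 min at 37 °C. cAMP read after 60 min room-temperature incubation with detection reagent.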

[6] = target: T2, hA2a; experiment: Radioligand binding to hA2a membrane ([3H]-CGS21680); conditions: [3H]-CGS21680, 90 min at 25° C., read-out: Binding Affinity (IC50 nM) hA2a
Protocol: (§2) Binding affinity and specificities of the compounds against different subtype of human adenosine receptors (hA1, hA2A, hA2B and hA3) were characterized with cell membrane chromatography binding analysis.
(§3) The compounds at different concentrations were incubate with hA2a membrane (from PerkinElmer) and [^3H]-CGS21680 for 90 min at 25° C., meanwhile 100 μL 0.5% PEI solution was added into […]-96 GF/B filter plate for 60 min at 4° C., then […]-96 GF/B filter plate was washed twice with 50 ml wash buffer, the membrane mix was transferred into […]-96 GF/B filter plate, and the filter plate was washed 4 times before incubated at 55° C. for 10 min. At last, […] ULTIMA GOLD was added into each well, and CPM was read by TopCount.
(§4) The empty boxes in the tables below indicate data not available.

[7] = target: T1, hA1; experiment: Radioligand binding to hA1 membrane ([3H]-DPCPX); conditions: 50 min at 25° C., read-out: Binding Affinity (IC50 nM) hA1
Protocol: as §2
as §3, with “hA1” for “hA2a”, “[^3H]-8-Cyclopentyl-1,3-dipropylxanthine (DPCPX)” for “[^3H]-CGS21680”, “50” for “90”
as §4

T1 sequence (P30542 whole entry): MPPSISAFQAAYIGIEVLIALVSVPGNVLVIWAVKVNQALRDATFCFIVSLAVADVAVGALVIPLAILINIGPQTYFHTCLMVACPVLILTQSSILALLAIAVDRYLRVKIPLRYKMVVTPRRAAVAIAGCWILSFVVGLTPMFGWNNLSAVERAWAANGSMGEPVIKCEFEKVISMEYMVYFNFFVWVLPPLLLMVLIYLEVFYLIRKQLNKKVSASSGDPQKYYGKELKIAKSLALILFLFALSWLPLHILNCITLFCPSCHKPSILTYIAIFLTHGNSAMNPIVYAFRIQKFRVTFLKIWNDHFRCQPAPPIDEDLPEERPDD
Sequence of mA2a (Q60613 whole entry): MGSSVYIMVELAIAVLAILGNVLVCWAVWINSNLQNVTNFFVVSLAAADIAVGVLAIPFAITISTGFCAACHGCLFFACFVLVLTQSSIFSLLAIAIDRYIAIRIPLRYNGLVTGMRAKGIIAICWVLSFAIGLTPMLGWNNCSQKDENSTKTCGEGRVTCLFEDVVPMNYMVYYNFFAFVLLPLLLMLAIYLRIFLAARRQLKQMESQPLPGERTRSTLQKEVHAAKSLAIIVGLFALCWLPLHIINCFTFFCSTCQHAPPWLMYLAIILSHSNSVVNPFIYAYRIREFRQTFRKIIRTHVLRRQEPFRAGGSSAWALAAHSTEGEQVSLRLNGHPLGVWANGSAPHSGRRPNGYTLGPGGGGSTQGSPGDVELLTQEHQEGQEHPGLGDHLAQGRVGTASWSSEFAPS
T2 sequence (P29274 whole entry): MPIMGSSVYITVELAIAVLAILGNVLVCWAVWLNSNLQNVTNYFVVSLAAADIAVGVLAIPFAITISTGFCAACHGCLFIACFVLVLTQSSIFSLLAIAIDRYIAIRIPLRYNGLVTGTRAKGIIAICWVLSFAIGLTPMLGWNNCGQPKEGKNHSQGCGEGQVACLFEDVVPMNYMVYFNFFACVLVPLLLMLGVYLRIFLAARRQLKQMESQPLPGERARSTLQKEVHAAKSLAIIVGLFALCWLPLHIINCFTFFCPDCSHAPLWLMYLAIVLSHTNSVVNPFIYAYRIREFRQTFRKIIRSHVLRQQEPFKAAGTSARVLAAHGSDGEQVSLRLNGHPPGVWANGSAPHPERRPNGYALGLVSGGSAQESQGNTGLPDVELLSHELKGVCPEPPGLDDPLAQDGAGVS
Sequence of hA3 (P0DMS8 whole entry): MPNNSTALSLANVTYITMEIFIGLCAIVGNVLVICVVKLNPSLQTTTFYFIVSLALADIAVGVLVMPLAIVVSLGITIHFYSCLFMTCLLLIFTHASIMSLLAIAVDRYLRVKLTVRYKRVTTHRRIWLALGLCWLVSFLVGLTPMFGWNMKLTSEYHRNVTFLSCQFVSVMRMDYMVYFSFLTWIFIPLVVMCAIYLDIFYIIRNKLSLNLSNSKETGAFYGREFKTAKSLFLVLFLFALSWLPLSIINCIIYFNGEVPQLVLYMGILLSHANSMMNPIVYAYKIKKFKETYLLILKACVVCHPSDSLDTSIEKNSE
Sequence of hA2b (P29275 whole entry): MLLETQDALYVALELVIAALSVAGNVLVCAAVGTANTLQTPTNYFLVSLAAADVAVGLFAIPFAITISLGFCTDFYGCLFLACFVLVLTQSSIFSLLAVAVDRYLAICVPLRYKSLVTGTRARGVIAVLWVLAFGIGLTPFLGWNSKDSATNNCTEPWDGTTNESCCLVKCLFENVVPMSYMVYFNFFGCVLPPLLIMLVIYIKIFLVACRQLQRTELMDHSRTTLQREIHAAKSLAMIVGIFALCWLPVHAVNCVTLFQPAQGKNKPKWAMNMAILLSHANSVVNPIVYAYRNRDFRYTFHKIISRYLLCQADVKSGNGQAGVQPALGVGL

Structure (SMILES)	IC50 [1] [nM]	IC50 [2] [nM]	IC50 [3] [nM]	IC50 [4] [nM]	IC50 [5] [nM]	IC50 [6] [nM]	IC50 [7] [nM]
Nc1nc(-c2ccc(F)cc2)c(-c2ccnc(Cl)c2)c2nc(Cc3ncccc3F)nn12 [Example 3, 8-(2-chloropyridin-4-yl)-7-(4-fluorophenyl)-2-((3-fluoropyridin-2-yl)methyl)-[1,2,4]triazolo[1,5-c]pyrmidin-5-amine]	> 10000	65	42	70	56	–	–
Cc1cc(-c2c(-c3ccc(F)cc3)nc(N)n3nc(Cc4cccc(Cl)c4)nc23)ccn1 [Example 8, 2-[(3-chlorophenyl)methyl]-7-(4-fluorophenyl)-8-(2-methylpyridin-4-yl)-[1,2,4]triazolo[1,5-c]pyrimidin-5-amine]	> 10000	2950	162	98	59	–	–
Cc1cc(-c2c(-c3ccc(F)cc3)nc(N)n3nc(Cc4ncccc4F)nc23)ccn1 [Example 2, 7-(4-fluorophenyl)-2-((3-fluoropyridin-2-yl)methyl)-8-(2-methylpyridin-4-yl)-[l,2,4]triazolo[l,5-c]pyrmidin-5-amine]	> 10000	73	23	59	59	–	–
Cc1cc(-c2c(-c3ccc(F)cc3)nc(N)n3nc(Cc4ncccc4F)nc23)cc(C)n1 [Example 14]	> 10000	2240	97	18	6.9	–	–
Cc1cc(-c2c(-c3ccc(F)cc3)nc(N)n3nc(Cc4cccc(C#N)n4)nc23)ccn1 [Example 19, 6-((5-amino-7-(4-fluorophenyl)-8-(2-methylpyridin-4-yl)-[1,2,4]triazolo[1,5-f]pyrimidin-2-yl)methyl)picolinonitrile]	> 10000	303	23	88	102	–	–
Cc1c(-c2c(-c3ccc(F)cc3)nc(N)n3nc(Cc4ncccc4F)nc23)ccc(=O)n1C [Example 66, 5-(5-amino-7-(4-fluorophenyl)-2-((3-fluoropyridin-2-yl)methyl)-[1,2,4]triazolo[1,5-c]pyrimidin-8-yl)-1,6-dimethylpyridin-2(1H)-one]	–	109	69	346	31	7.2	46
Cn1cc(-c2c(-c3cccc(Cl)c3)nc(N)n3nc(Cc4ncccc4F)nc23)ccc1=O [Example 70, 5-(5-amino-7-(3-chlorophenyl)-2-((3-fluoropyridin-2-yl)methyl)-[1,2,4]triazolo[1,5-c]pyrimidin-8-yl)-l-methylpyridin-2(lH)-one]	–	68	14	13	5.5	4.1	0.8
Nc1nc(-c2ncco2)c(-c2ccc3nccn3c2)c2nc(Cc3ncccc3F)nn12 [Example 31, 2-((3-fluoropyridin-2-yl)methyl)-8-(imidazo[1,2-a]pyridin-6-yl)-7-(oxazol-2-yl)-[1,2,4]triazolo[1,5-c]pyrimidin-5-amine]	–	80	188	51	14	3	137
Nc1nc(-n2nccn2)c(-c2ccc3nccn3c2)c2nc(Cc3ncccc3F)nn12 [Example 94, 2-[(3-fluoropyridin-2-yl)methyl]-8-[imidazo[1,2-a]pyridin-6-yl]-7-(2H-1,2,3-triazol-2-yl)-[1,2,4]triazolo[1,5-c]pyrimidin-5-amine]	–	94	41	20	7.7	3.5	52
Cn1cc(-c2c(-c3ccc(C(F)F)cc3)nc(N)n3nc(Cc4ncccc4F)nc23)ccc1=O [Example 41, 5-(5-amino-7-(4-(difluoromethyl)phenyl)-2-((3-fluoropyridin-2-yl)methyl)-[1,2,4]triazolo[1,5-c]pyrimidin-8-yl)-1-methylpyridin-2(1H)-one]	–	259	17	189	70	3.4	2.2
Nc1nc(-c2ncco2)c(-c2ccnc(OC(F)F)c2)c2nc(Cc3c(F)cccc3F)nn12 [Example 85, 2-(2,6-difluorobenzyl)-8-(2-(difluoromethoxy)pyridin-4-yl)-7-(oxazol-2-yl)-[1,2,4]triazolo[1,5-c] pyrimidin-5-amine]	–	48	27	11	15	5.5	5.4
Nc1nc(-c2ccc(F)cc2)c(-c2ccc3nccn3c2)c2nc(Cc3ncccc3F)nn12 [Example 32, 7-(4-fluorophenyl)-2-((3-fluoropyridin-2-yl)methyl)-8-(imidazo[1,2-a]pyridin-6-yl)-[1,2,4]triazolo [1,5-c]pyrimidin-5-amine]	–	19	28	5.4	0.9	5.5	3.4
Nc1cccc(Cc2nc3c(-c4ccc5nccn5c4)c(-c4ccc(F)cc4)nc(N)n3n2)n1 [Example 37, 2-((6-aminopyridin-2-yl)methyl)-7-(4-fluorophenyl)-8-(imidazo[1,2-a]pyridin-6-yl)-[1,2,4]triazolo[1,5-c]pyrimidin-5-amine]	–	12	12	7.3	1.8	6.3	4
COc1cccc(-c2nc(N)n3nc(Cc4ncccc4F)nc3c2-c2ccc(=O)n(C)c2)c1 [Example 77, 5-(5-amino-2-((3-fluoropyridin-2-yl)methyl)-7-(3-methoxyphenyl)-[1,2,4]triazolo[1,5-c]pyrimidin-8-yl)-1-methylpyridin-2(1H)-one]	–	51	13	17	6.7	3.6	1.4
Cn1cc(-c2c(-c3ccc(C(F)(F)F)cc3)nc(N)n3nc(Cc4ncccc4F)nc23)ccc1=O [Example 62, 5-(5-amino-2-((3-fluoropyridin-2-yl)methyl)-7-(4-(trifluoromethyl)phenyl)-[l,2,4]triazolo[l,5-c]pyrimidin-8-yl)-l-methylpyridin-2(1H)-one]	–	602	27	318	184	5.2	5.1
Cn1cc(-c2c(-c3ncco3)nc(N)n3nc(Cc4c(F)cccc4F)nc23)ccc1=O [Example 22, 5-(5-amino-2-(2,6-difluorobenzyl)-7-(oxazol-2-yl)-[1,2,4]triazolo[1,5-c]pyrimidin-8-yl)-1-methylpyridin-2(1H)-one]	–	168	25	12	8.2	12	6.8
Nc1nc(-c2ncco2)c(-c2ccnc(OC(F)F)c2)c2nc(Cc3ncccc3F)nn12 [Example 86, 8-(2-(difluoromethoxy)pyridin-4-yl)-2-((3-fluoropyridin-2-yl)methyl)-7-(oxazol-2-yl)-[1,2,4]triaz olo[1,5-c]pyrimidin-5-amine]	–	83	59	48	71	8.3	21
COc1ccc(-c2nc(N)n3nc(Cc4ncccc4F)nc3c2-c2ccc(=O)n(C)c2)cc1 [Example 61, 5-(5-amino-2-((3-fluoropyridin-2-yl)methyl)-7-(4-methoxyphenyl)-[1,2,4]triazolo[1,5-c]pyrimidin-8-yl)-1-methylpyridin-2(1H)-one]	–	122	25	42	28	4.2	1.7
